Like-named read-outs stand apart in the source and are kept apart here. Blank lines part the entries; values can stand above or below the compound they belong to.
Key:
STS = molecular target: T1, STS (Homo sapiens, UniProt P08842); assay: Plate assay, % inhibition
T1 sequence (P08842 22-583): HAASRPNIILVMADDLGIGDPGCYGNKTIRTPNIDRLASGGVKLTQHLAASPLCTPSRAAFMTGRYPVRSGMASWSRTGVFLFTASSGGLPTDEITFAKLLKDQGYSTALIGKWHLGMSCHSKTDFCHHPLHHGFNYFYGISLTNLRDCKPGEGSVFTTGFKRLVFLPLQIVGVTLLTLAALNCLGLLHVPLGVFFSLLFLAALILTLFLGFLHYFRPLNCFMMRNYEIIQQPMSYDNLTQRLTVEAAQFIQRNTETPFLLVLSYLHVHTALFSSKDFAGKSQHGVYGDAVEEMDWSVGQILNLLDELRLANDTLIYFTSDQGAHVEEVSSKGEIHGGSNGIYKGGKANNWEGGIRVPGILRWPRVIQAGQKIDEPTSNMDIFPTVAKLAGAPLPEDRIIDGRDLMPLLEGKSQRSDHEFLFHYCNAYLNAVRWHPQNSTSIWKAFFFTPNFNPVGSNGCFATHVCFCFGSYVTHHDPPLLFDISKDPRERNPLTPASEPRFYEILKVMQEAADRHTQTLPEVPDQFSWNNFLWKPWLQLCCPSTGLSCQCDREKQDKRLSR

steroid sulphatase = molecular target: T2, steroid sulphatase (Homo sapiens, UniProt P08842); assay: Inhibition of steroid sulphatase activity in placental microsomes (Protocol 2); type: biochemical; conditions: for inhibition at 0.01 µM / inhibition at 0.1 µM / inhibition at 10 µM: read-out: Placental Microsomes, % inhibition
T2 construct: Sulphatase-positive human placenta from normal term pregnancies are thoroughly minced with scissors; from tissue; host or cells: human term placenta (2000 g supernatant / microsomes)

T47D cells = assay: IC50 in T47D cells (table footnote); type: cell-based; conditions: Homo sapiens
Description: The STS inhibition provided by the compounds was determined in accordance with a plate assay and the Protocols set out herein.

E1-STS enzyme = molecular target: T3, E1-STS enzyme (Homo sapiens, UniProt P08842); conditions: cited from earlier work
T3 sequence (P08842 22-583): T1 sequence (P08842 22-583)

[1] = system: Meth A sarcoma, B16 melanoma or MDA-MB-435 estrogen receptor negative (ER−) breast cancer cells; conditions: subcutaneous injection of tumour cells; cited from earlier work
tubulin = conditions: at high concentrations; cited from earlier work
T47D cell = T47D cell growth, % inhibition; type: cell-based; conditions: Homo sapiens
[2] = rats; cited from earlier work
[3] = rats, higher than that of estradiol; cited from earlier work
[4] = in vivo; cited from earlier work
[5] = read-out: Plate assay % inhibition
[6] = 0.1 μM, read-out: Plate Assay, % inhibition
[7] = 1 μM, read-out: Plate Assay, % inhibition
[8] = 10 μM, read-out: Plate Assay, % inhibition
[9] = 0.1 μM, -ve % means stimulation
[10] = 10 nM, superscript 1 or 2 = run with the reference values of that footnote, -ve % means stimulation
[11] = 1 μM, superscript 1 or 2 = run with the reference values of that footnote, -ve % means stimulation

Compound: COc1cc2c(cc1OS(N)(=O)=O)CC[C@@H]1[C@@H]2CC[C@@]2(C)[C@H]1CC[C@@]2(O)Cc1ccccc1 [BLE01018, 3-O-Sulfamate 17β-hydroxy-17α-benzyl-2-methoxyestra-1,3,5(10)-triene]
- inhibition at 0.1 µM (STS; [5]): -19%
- inhibition at 1 µM (STS; [5]): -12%
- IC50 (steroid sulphatase): 0.43 µM

- melting point: 250 to 255 °C
Compound: C[C@]12CCC3c4ccc(O)cc4CCC3C1CC[C@@]2(O)Cc1ccccn1 (stereo partly drawn)

Compound: CSc1cc2c(cc1OS(N)(=O)=O)CCC1C2CCC2(C)C(=O)CCC12 (stereo not drawn) [Compound 7]
- inhibition at 0.1 µM (STS; [6]): 3%
- inhibition at 1 µM (STS; [7]): 53%
- inhibition at 10 µM (STS; [8]): 55%
- inhibition at 0.01 µM (steroid sulphatase; 10 nM): 5.4%
- IC50 (T47D cells): 0.0025 µM

Compound: COc1cc2c(cc1OS(N)(=O)=O)CC[C@@H]1[C@@H]2CC[C@@]2(C)[C@H]1CC[C@@]2(O)Cc1ccc(C(C)(C)C)cc1 [BLE01016, 3-O-Sulfamate 17β-hydroxy-17α-(4-tert-butylbenzyl)-2-methoxyestra-1,3,5(10) -triene]
- inhibition at 0.1 µM (STS; [5]): -14%
- inhibition at 1 µM (STS; [5]): -10%
- inhibition at 10 µM (STS; [5]): -3%
- IC50 (steroid sulphatase): 4.3 µM

- melting point: 173 to 177 °C
Compound: COc1cc2c(cc1O)CCC1C2CC[C@@]2(C)C1CC[C@@]2(O)Cc1cccc(Br)c1 (stereo partly drawn)

Compound: C[C@]12CCC3c4ccc(OS(N)(=O)=O)cc4CCC3C1CC[C@@H]2OS(=O)(=O)N(Cc1ccccc1)Cc1ccccc1 (stereo partly drawn) [BLE99063]
- Plate assay % inhibition (STS; [9]): 0%
- Plate assay % inhibition (STS; 1 μM, -ve % means stimulation): 15%
- Placental Microsomes % inhibition (steroid sulphatase; [10]): −1.9^1%
- Placental Microsomes % inhibition (steroid sulphatase; [11]): 38.2^1%

Compound: CC(=O)NS(=O)(=O)O[C@H]1CCC2C3CCc4cc(OS(N)(=O)=O)ccc4C3CC[C@@]21C (stereo partly drawn) [BLE99065]
- Plate assay % inhibition (STS; [9]): 7%
- Plate assay % inhibition (STS; 1 μM, -ve % means stimulation): 5%
- Plate assay % inhibition (STS; 10 μM, -ve % means stimulation): 23%
- Placental Microsomes % inhibition (steroid sulphatase; [10]): 9.8^1%
- Placental Microsomes % inhibition (steroid sulphatase; [11]): 91.0^1%

Compound: CCCCCN(CCCCC)S(=O)(=O)O[C@H]1CCC2C3CCc4cc(OS(N)(=O)=O)ccc4C3CC[C@@]21C (stereo partly drawn) [BLE99074]
- Placental Microsomes % inhibition (steroid sulphatase; [11]): 23.7^2%

Compound: C[C@]12CCC3c4ccc(OS(N)(=O)=O)cc4CCC3C1CC[C@H]2OS(=O)(=O)N(Cc1ccccc1)Cc1ccccc1 (stereo partly drawn) [BLE99068]
- Plate assay % inhibition (STS; [9]): −18%
- Plate assay % inhibition (STS; 1 μM, -ve % means stimulation): −1%
- Plate assay % inhibition (STS; 10 μM, -ve % means stimulation): 19%
- Placental Microsomes % inhibition (steroid sulphatase; [10]): 4.9^1%
- Placental Microsomes % inhibition (steroid sulphatase; [11]): 58.2^1%

Compound: C[C@]12CC[C@@H]3c4ccc(OS(N)(=O)=O)cc4CC[C@H]3[C@@H]1CC[C@@H]2O [BLE00084]
- Plate assay % inhibition (STS; [9]): 4%
- Plate assay % inhibition (STS; 10 μM, -ve % means stimulation): 23%

Compound: COc1cc2c(cc1OS(N)(=O)=O)CC[C@@H]1[C@@H]2CC[C@]2(C)C(=O)CC[C@@H]12 [Compound 2-MOEMATE, 2-methoxyoestrone-3-O-sulphamate, reference compound]
- Plate assay % inhibition (STS; [9]): 15%
- Plate assay % inhibition (STS; 1 μM, -ve % means stimulation): 42%
- Plate assay % inhibition (STS; 10 μM, -ve % means stimulation): 88%
- potency as a steroid sulphatase inhibitor relative to EMATE (E1-STS enzyme): equipotent with EMATE

Compound: COc1cc2c(cc1O)CCC1C2CC[C@@]2(C)C1CC[C@@]2(O)Cc1ccc(C(C)(C)C)cc1 (stereo partly drawn) [BLE01008, 3,17β-Dihydroxy-17α-(4-tert-butylbenzyl)-2-methoxyestra-1,3,5(10)-triene]
- melting point: 223 to 225 °C
- inhibition at 0.1 µM (STS; [5]): -12%
- inhibition at 1 µM (STS; [5]): -15%

Compound: COc1cc2c(cc1O)CC[C@@H]1[C@@H]2CC[C@]2(C)[C@@H](O)CC[C@@H]12 [Compound 2-MeOE2, 2-methoxyoestradiol]
- growth of tumours in vivo [1]: inhibits the growth of tumours
- inhibition of colchicine binding to tubulin (tubulin): weak inhibitor of colchicine binding to tubulin

Compound: CN(C)S(=O)(=O)OC1CCC2C3CCc4cc(OS(N)(=O)=O)ccc4C3CCC12C (stereo not drawn) [BLE99069]
- Plate assay % inhibition (STS; [9]): 3%
- Plate assay % inhibition (STS; 1 μM, -ve % means stimulation): 10%
- Placental Microsomes % inhibition (steroid sulphatase; [10]): 30.3^1%
- Placental Microsomes % inhibition (steroid sulphatase; [11]): 96.3^1%

Compound: CC1=C2CCC3c4ccc(OS(N)(=O)=O)cc4CCC3C2CC1 (stereo not drawn) [BLE00086]
- inhibition at 0.1 µM (STS; [5]): 8%
- inhibition at 1 µM (STS; [5]): 3%
- inhibition at 10 µM (STS; [5]): 14%
- inhibition at 10 µM (T47D cell): 93.2%

Compound: NS(=O)(=O)Oc1ccc(C(=O)c2ccccc2)cc1 [Compound 6]
- Plate assay % inhibition (STS; 0.1 μM): <1%
- Plate assay % inhibition (STS; 1 μM): 1%
- Plate assay % inhibition (STS; 10 μM): 11%

Compound: CSc1cc2c(cc1OS(N)(=O)=O)CCC1C2CCC2(C)C1CCC2(O)Cc1ccc(C(C)(C)C)cc1 (stereo not drawn) [Compound 3]
- inhibition at 0.1 µM (STS; [6]): < 1%
- inhibition at 1 µM (STS; [7]): < 1%
- inhibition at 10 µM (STS; [8]): 48%
- inhibition at 0.01 µM (steroid sulphatase; 10 nM): 17.6%
- inhibition at 0.1 µM (steroid sulphatase; 100 nM): 56%
- inhibition at 10 µM (steroid sulphatase; 10 μM): 86.4%
- IC50 (steroid sulphatase; read-out: Placental Microsomes, IC50): 0.08 µM

- Plate assay % inhibition (STS; 0.1 μM): <1%
- Plate assay % inhibition (STS; 1 μM): 1%
- Plate assay % inhibition (STS; 10 μM): 16%
- Placental Microsomes % inhibition (steroid sulphatase; 10 nM): <5%
- Placental Microsomes % inhibition (steroid sulphatase; column head printed "μM"): 66.0%
Compound: NS(=O)(=O)Oc1ccc2oc3ccccc3c2c1 [Compound 9]

Compound: CC12CCC3c4ccc(OS(N)(=O)=O)cc4CCC3C1CCC2OS(N)(=O)=O (stereo not drawn) [BLE99031B]
- inhibition at 0.1 µM (STS; [5]): 7%
- inhibition at 1 µM (STS; [5]): 12%
- inhibition at 10 µM (STS; [5]): 32%
- IC50 (steroid sulphatase): 0.02 µM

Compound: oestrone-3-N-sulphamate
- mode of E1-STS inhibition (E1-STS enzyme): weaker non-time-dependent inactivators

Compound: C[C@]12CCC3c4ccc(O)cc4CCC3C1CC[C@@H]2OS(=O)(=O)N(Cc1ccccc1)Cc1ccccc1 (stereo partly drawn) [BLE99060]
- Placental Microsomes % inhibition (steroid sulphatase; [10]): −3.2^2%
- Placental Microsomes % inhibition (steroid sulphatase; [11]): 1.36^2%

Compound: CC12CCC3c4ccc(OS(N)(=O)=O)cc4CCC3C1CCC2=O (stereo not drawn) [EMATE, oestrone-3-sulphamate, reference compound]
- memory effect [2]: memory enhancing effect
- mode of E1-STS inhibition (E1-STS enzyme): time- and concentration-dependent manner
- oral uterotrophic activity relative to estradiol [3]: 100 times
- IC50 (steroid sulphatase): 0.018 µM
- Placental Microsomes % inhibition (steroid sulphatase; human): 97.8%
- inhibition at 0.01 µM (steroid sulphatase): 27.3%
- inhibition at 0.1 µM (steroid sulphatase): 85.1%
- inhibition at 10 µM (steroid sulphatase): 99.5%

- Plate assay % inhibition (STS; 0.1 μM): <1%
- Plate assay % inhibition (STS; 1 μM): <4%
- Plate assay % inhibition (STS; 10 μM): 14%
Compound: NS(=O)(=O)Oc1ccc(C(=O)C=Cc2ccccc2)cc1 [Compound 8]

Compound: COc1cc2c(cc1O)CCC1C2CC[C@@]2(C)C1CC[C@@]2(O)Cc1ccccc1 (stereo partly drawn) [BLE01014, 3,17β-Dihydroxy-17α-benzyl-2-methoxyestra-1,3,5(10)-triene]
- melting point: 209 to 213 °C
- inhibition at 0.1 µM (STS; [5]): -14%
- inhibition at 1 µM (STS; [5]): -14%

Compound: CCCCCN(CCCCC)S(=O)(=O)O[C@H]1CCC2C3CCc4cc(O)ccc4C3CC[C@@]21C (stereo partly drawn) [BLE99073]
- Placental Microsomes % inhibition (steroid sulphatase; [10]): 1.2^2%
- Placental Microsomes % inhibition (steroid sulphatase; [11]): −11.8^2%

Compound: CN(C)S(=O)(=O)O[C@H]1CCC2C3CCc4cc(O)ccc4C3CC[C@@]21C (stereo partly drawn) [BLE99067]
- Plate assay % inhibition (STS; [9]): −5%
- Plate assay % inhibition (STS; 1 μM, -ve % means stimulation): −1%
- Plate assay % inhibition (STS; 10 μM, -ve % means stimulation): 50%
- Placental Microsomes % inhibition (steroid sulphatase; [10]): −0.1^1%
- Placental Microsomes % inhibition (steroid sulphatase; [11]): 8.7^1%

Compound: oestrone-3-S-sulphamate
- mode of E1-STS inhibition (E1-STS enzyme): weaker non-time-dependent inactivators

Compound: CC(=O)NS(=O)(=O)O[C@H]1CCC2C3CCc4cc(O)ccc4C3CC[C@@]21C (stereo partly drawn) [BLE99058]
- Plate assay % inhibition (STS; [9]): 4%
- Plate assay % inhibition (STS; 1 μM, -ve % means stimulation): 1%
- Placental Microsomes % inhibition (steroid sulphatase; [10]): 0.9^1%
- Placental Microsomes % inhibition (steroid sulphatase; [11]): 7.8^1%

Compound: C[C@]12CC[C@@H]3c4ccc(OS(=O)(=O)O)cc4CC[C@H]3[C@@H]1CCC2=O [Compound E1S, oestrone sulphate]
- half-life in blood [4]: 10 to 12 h

Compound: C[C@]12CCC3c4ccc(O)cc4CCC3C1CC[C@H]2OS(=O)(=O)N(Cc1ccccc1)Cc1ccccc1 (stereo partly drawn) [BLE99066]
- Plate assay % inhibition (STS; [9]): 11%
- Plate assay % inhibition (STS; 1 μM, -ve % means stimulation): 5%
- Plate assay % inhibition (STS; 10 μM, -ve % means stimulation): 27%
- Placental Microsomes % inhibition (steroid sulphatase; [10]): 1.4^1%
- Placental Microsomes % inhibition (steroid sulphatase; [11]): 4.5^1%

Compound: COc1cc2c(cc1OS(N)(=O)=O)CCC1C2CCC2(C)C(OS(N)(=O)=O)CCC12 (stereo not drawn) [OSO2NH2, OMe, C-β-OSO2NH2, α-H]
- inhibition at 0.1 µM (STS; [5]): 7%
- inhibition at 1 µM (STS; [5]): 12%
- inhibition at 10 µM (STS; [5]): 32%

Reference: patent publication US7067503B2, “17-aryl linker derivatised estrogen 3-sulphamates as inhibitors of steroid sulphatase” (priority 2000, dated 2006)
